Laboratory results reported in patent US10689367B2, “Triazole pyridyl compounds as agonists of the APJ receptor” (AMGEN INC., priority 2016, dated 2020).

Target: human APJ receptor (Homo sapiens (Human), UniProt P35414)
Assay: [35S]GTPγS binding assay on membranes from CHO cells stably expressing human APJ receptor
Assay type: biochemical
Conditions: membranes of CHO cells stably expressing human APJ receptor, read-out: Activity hAPJ SPA EC50 IP
Procedure, shortened: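 Agonist EC50 values come from non-linear regression of mean data from several independent runs. Membranes of CHO cells stably expressing human APJ were incubated 90 min at room temperature with [35S]GTPγS in buffer with optimized GDP, MgCl2 and NaCl, then read on a microplate imager.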

Chain of human APJ receptor (P35414 whole entry): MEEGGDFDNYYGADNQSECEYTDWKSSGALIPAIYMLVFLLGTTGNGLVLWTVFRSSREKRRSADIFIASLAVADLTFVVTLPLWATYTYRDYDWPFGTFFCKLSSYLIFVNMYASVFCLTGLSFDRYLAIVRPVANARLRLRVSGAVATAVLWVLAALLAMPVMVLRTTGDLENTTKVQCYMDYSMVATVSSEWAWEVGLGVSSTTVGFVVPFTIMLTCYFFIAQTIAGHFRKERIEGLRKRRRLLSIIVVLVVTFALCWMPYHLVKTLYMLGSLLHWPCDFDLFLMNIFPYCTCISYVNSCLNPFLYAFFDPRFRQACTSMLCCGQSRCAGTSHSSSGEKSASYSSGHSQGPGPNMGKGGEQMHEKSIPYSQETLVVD

SMILES | EC50 [nM]
COc1cccc(-c2nnc(NS(=O)(=O)[C@@H](C)[C@H](C)c3ncc(Cl)cn3)n2[C@H](c2conc2C)C2CC2)n1 (mixture of isomers) [Example 228.0, (2S,3R)-3-(5-chloro-2-pyrimidinyl)-N-(4-((S)-cyclopropyl(3-methyl-1,2-oxazol-4-yl)methyl)-5-(6-methoxy-2-pyridinyl)-4H-1,2,4-triazol-3-yl)-2-butanesulfonamide and (2S,3R)-3-(5-chloro-2-pyrimidinyl)-N-(4-((R)-cyclopropyl(3-methyl-1,2-oxazol-4-yl)methyl)-5-(6-methoxy-2-pyridinyl)-4H-1,2,4-triazol-3-yl)-2-butanesulfonamide] | 0.88
COc1cccc(-c2nnc(NS(=O)(=O)[C@@H](C)[C@H](C)c3ncc(Cl)cn3)n2[C@@H](C)c2ncc(C)o2)n1 (single isomer, unassigned) [Example 257.0, (2S,3R)-3-(5-chloro-2-pyrimidinyl)-N-(5-(6-methoxy-2-pyridinyl)-4-((1S)-1-(5-methyl-1,3-oxazol-2-yl)ethyl)-4H-1,2,4-triazol-3-yl)-2-butanesulfonamide or (2S,3R)-3-(5-chloro-2-pyrimidinyl)-N-(5-(6-methoxy-2-pyridinyl)-4-((1R)-1-(5-methyl-1,3-oxazol-2-yl)ethyl)-4H-1,2,4-triazol-3-yl)-2-butanesulfonamide] | 16
COc1cccc(-c2nnc(NS(=O)(=O)[C@@H](C)[C@H](OC)c3ncc(Cl)cn3)n2[C@H](C)c2cccnc2)n1 (single isomer, unassigned) [Example 351.0, (1R,2S)-1-(5-chloropyrimidin-2-yl)-1-methoxy-N-(5-(6-methoxypyridin-2-yl)-4-((R)-1-(pyridin-3-yl)ethyl)-4H-1,2,4-triazol-3-yl)propane-2-sulfonamide or (1R,2S)-1-(5-chloropyrimidin-2-yl)-1-methoxy-N-(5-(6-methoxypyridin-2-yl)-4-((S)-1-(pyridin-3-yl)ethyl)-4H-1,2,4-triazol-3-yl)propane-2-sulfonamide] | 0.36
COc1cccc(-c2nnc(NS(=O)(=O)[C@@H](C)[C@H](C)c3ncc(Cl)cn3)n2Cc2ccno2)n1 [Example 207.0, (2S,3R)-3-(5-chloro-2-pyrimidinyl)-N-(5-(6-methoxy-2-pyridinyl)-4-(1,2-oxazol-5-ylmethyl)-4H-1,2,4-triazol-3-yl)-2-butanesulfonamide] | 30
CC[C@@H](c1c(C)noc1C)n1c(NS(=O)(=O)[C@@H](C)[C@@H](OC(C)C)c2ncc(C)cn2)nnc1-c1cccc(OC)n1 (single isomer, unassigned) [Example 221.0, (1S,2S)-N-(4-((1R)-1-(3,5-dimethyl-1,2-oxazol-4-yl)propyl)-5-(6-methoxy-2-pyridinyl)-4H-1,2,4-triazol-3-yl)-1-(5-methyl-2-pyrimidinyl)-1-(2-propanyloxy)-2-propanesulfonamide or (1S,2S)-N-(4-((1S)-1-(3,5-dimethyl-1,2-oxazol-4-yl)propyl)-5-(6-methoxy-2-pyridinyl)-4H-1,2,4-triazol-3-yl)-1-(5-methyl-2-pyrimidinyl)-1-(2-propanyloxy)-2-propanesulfonamide] | 14
COc1cnc([C@@H](OC)[C@H](C)S(=O)(=O)Nc2nnc(-c3cccc(OC)n3)n2C2CC2)cn1 [Example 121.0] | 21
COc1cccc(-c2nnc(NS(=O)(=O)[C@@H](C)[C@H](OC)c3ncc(Cl)cn3)n2[C@@H](C)c2ccno2)n1 (single isomer, unassigned) [Example 212.0, (1R,2S)-1-(5-chloro-2-pyrimidinyl)-1-methoxy-N-(5-(6-methoxy-2-pyridinyl)-4-((1S)-1-(1,2-oxazol-5-yl)ethyl)-4H-1,2,4-triazol-3-yl)-2-propanesulfonamide or (1R,2S)-1-(5-chloro-2-pyrimidinyl)-1-methoxy-N-(5-(6-methoxy-2-pyridinyl)-4-((1R)-1-(1,2-oxazol-5-yl)ethyl)-4H-1,2,4-triazol-3-yl)-2-propanesulfonamide] | 0.85
